These are literature values, as cited in patent US7037910B2, “Azabicyclic heterocycles as cannabinoid receptor modulators” (Bristol-Myers Squibb, priority 2003, dated 2006).

Where two headings read alike, the source gives them in different places.

For data set [1] the following is noted: chronic administration for two weeks.
For data set [2] the following is noted: human subjects, 16 week trial period.

Turning to `Cc1c(C(=O)NN2CCCCC2)nn(-c2ccc(Cl)cc2Cl)c1-c1ccc(I)cc1` [AM-251], the body weight result in data set [1] is on record as “substantial body weight reduction”.

`Cc1c(C(=O)NN2CCCCC2)nn(-c2ccc(Cl)cc2Cl)c1-c1ccc(Cl)cc1` [SR-141716]: the body weight result in data set [2] is on record as “dose-dependently reduced body weight”.
